Each structure is given as a SMILES string. A value given as a limit tells only on which side of the number the result lay.

T1 sequence (Q9Y2I7 whole entry): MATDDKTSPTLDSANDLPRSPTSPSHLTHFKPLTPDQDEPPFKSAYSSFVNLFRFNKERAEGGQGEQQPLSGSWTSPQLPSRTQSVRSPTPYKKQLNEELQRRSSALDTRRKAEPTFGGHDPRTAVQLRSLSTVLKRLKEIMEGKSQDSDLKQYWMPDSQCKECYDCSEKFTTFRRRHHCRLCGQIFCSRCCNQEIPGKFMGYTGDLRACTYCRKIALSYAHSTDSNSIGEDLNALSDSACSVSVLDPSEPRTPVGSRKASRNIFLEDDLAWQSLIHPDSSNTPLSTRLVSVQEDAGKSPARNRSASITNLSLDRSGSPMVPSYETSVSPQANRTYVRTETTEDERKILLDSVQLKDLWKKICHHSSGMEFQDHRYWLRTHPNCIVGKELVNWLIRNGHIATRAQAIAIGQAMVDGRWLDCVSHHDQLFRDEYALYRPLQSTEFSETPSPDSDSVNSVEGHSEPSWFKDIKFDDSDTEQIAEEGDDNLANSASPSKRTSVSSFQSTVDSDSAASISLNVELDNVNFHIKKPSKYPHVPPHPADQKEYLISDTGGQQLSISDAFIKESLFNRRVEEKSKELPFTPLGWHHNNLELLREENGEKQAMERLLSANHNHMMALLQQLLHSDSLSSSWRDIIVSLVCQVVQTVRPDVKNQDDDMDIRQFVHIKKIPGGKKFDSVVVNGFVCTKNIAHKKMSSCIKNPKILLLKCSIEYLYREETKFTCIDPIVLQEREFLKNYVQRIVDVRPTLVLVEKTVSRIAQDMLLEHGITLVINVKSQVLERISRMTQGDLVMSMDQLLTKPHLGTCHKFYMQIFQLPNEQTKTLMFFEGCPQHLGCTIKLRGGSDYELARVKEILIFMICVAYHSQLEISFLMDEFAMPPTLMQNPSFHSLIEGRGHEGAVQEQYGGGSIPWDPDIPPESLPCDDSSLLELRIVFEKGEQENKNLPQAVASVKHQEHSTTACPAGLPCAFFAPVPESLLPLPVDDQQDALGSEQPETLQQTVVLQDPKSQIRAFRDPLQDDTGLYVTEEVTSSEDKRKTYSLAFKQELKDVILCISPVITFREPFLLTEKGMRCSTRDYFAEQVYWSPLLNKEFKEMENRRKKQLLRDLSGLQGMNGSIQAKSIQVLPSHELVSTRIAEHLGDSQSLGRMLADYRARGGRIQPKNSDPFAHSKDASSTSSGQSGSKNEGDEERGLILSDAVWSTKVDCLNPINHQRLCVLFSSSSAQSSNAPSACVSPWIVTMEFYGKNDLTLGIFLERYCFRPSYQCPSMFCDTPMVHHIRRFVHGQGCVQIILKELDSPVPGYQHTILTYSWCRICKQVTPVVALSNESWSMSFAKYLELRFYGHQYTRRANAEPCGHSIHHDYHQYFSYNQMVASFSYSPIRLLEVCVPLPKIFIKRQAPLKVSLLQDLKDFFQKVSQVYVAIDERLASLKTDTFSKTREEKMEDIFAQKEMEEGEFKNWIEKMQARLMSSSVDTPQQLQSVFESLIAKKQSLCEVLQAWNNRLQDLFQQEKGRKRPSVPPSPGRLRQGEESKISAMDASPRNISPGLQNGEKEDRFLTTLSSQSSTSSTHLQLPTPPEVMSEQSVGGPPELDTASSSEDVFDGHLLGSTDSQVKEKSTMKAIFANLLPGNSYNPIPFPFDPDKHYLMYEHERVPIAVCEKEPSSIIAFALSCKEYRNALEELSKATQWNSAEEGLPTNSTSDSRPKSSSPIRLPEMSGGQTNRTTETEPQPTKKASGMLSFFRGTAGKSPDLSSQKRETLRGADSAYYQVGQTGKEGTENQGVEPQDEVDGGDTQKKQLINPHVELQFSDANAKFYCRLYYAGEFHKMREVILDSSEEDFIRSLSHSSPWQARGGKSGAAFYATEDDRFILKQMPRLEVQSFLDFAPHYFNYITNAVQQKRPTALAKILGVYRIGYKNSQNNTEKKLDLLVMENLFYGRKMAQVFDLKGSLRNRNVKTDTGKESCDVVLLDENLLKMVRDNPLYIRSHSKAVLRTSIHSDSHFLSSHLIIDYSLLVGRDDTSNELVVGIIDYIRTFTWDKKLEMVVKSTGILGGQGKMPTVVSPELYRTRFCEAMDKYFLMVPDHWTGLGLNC

The first assay addresses T1, PIKfyve (Homo sapiens, UniProt Q9Y2I7).
T1 construct: purchased Nanosyn, Santa Clara, CA, USA (contract assay service)
Description: biochemical PIKfyve mobility shift assay (Nanosyn).
Conditions: not given
On to `COc1ccc(-c2cnc3c(NC(=O)c4cccnc4)snc3c2)cc1OC` [Compound 20, N-(6-(3,4-Dimethoxyphenyl)isothiazolo[4,3-b]pyridin-3-yl)nicotinamide], for which the “PIKfyve inhibition in words” value was “practically inactive”.
Same read-out and setting: the result for `COc1ccc(-c2cnc3c(NCc4cccnc4)snc3c2)cc1OC` [Compound 15, 6-(3,4-Dimethoxyphenyl)-N-(pyridin-3-ylmethyl)isothiazolo[4,3-b]pyridin-3-amine] reads “practically inactive”.

Still in this assay, the particulars now being: Tables 1-4 and text.
In the case of `COCCOc1ccc(-c2cnc3c(C#Cc4cccnc4)snc3c2)cc1` [Compound 3j, 6-(4-(2-Methoxyethoxy)phenyl)-3-(pyridin-3-ylethynyl)isothiazolo[4,3-b]pyridine], the IC50 (in general, the concentration that inhibits the measured activity by half) came to 2.1 nM.
With `CCNC(=O)c1ccc(-c2cnc3c(C#Cc4cccnc4)snc3c2)cc1` [Compound 3n, N-Ethyl-4-(3-(pyridin-3-ylethynyl)isothiazolo[4,3-b]pyridin-6-yl)benzamide], the IC50 worked out at 3.5 nM.
`CN(C)c1ccc(-c2cnc3c(C#Cc4cccnc4)snc3c2)cc1` [Compound 3d, N,N-Dimethyl-4-(3-(pyridin-3-ylethynyl)isothiazolo[4,3-b]pyridin-6-yl)aniline]: the IC50 came out at 2.2 nM.
Regarding `COc1ccc(-c2cnc3c(/C=C(/c4cccnc4)N4CCOCC4)snc3c2)cc1OC` [Compound 23c, (Z)-4-(2-(6-(3,4-Dimethoxyphenyl)isothiazolo[4,3-b]pyridin-3-yl)-1-(pyridin-3-yl)vinyl)morpholine], the IC50 is 613 nM.
Regarding `COc1ccc(-c2cnc3c(C#CCNc4ccccc4)snc3c2)cc1OC` [Compound 13, N-(3-(6-(3,4-Dimethoxyphenyl)isothiazolo[4,3-b]pyridin-3-yl)prop-2-yn-1-yl)aniline], the IC50 is 184 nM.
As for `COc1ccc(-c2cnc3c(C#Cc4ccccc4)snc3c2)cc1OC` [Compound 7b, 6-(3,4-Dimethoxyphenyl)-3-(phenylethynyl)isothiazolo[4,3-b]pyridine], the IC50 stood at 59 nM.
For `CCCC#Cc1snc2cc(-c3ccc(OC)c(OC)c3)cnc12` [Compound 7a, 6-(3,4-Dimethoxyphenyl)-3-(pent-1-yn-1-yl)isothiazolo[4,3-b]pyridine], the IC50 is 850 nM.
Consider `O=C(c1ccc(-c2cnc3c(C#Cc4cccnc4)snc3c2)cc1)N1CCCC1` [Compound 3p, (4-(3-(Pyridin-3-ylethynyl)isothiazolo[4,3-b]pyridin-6-yl)phenyl)(pyrrolidin-1-yl)methanone], for which the IC50 worked out at 20 nM.
On to `COc1ccc(-c2cnc3c(C#Cc4ccncc4)snc3c2)cc1OC` [Compound 7x, 6-(3,4-Dimethoxyphenyl)-3-(pyridin-4-ylethynyl)isothiazolo[4,3-b]pyridine], for which the IC50 is 75 nM.
`COc1ccc(-c2cnc3c(C#Cc4ccccn4)snc3c2)cc1OC` [Compound 7y, 6-(3,4-Dimethoxyphenyl)-3-(pyridin-2-ylethynyl)isothiazolo[4,3-b]pyridine]: the IC50 turned out to be 30 nM.
Regarding `COc1ccc(-c2cnc3c(C#Cc4ccc(C(F)(F)F)nc4)snc3c2)cc1OC` [Compound 7n, 6-(3,4-Dimethoxyphenyl)-3-((6-(trifluoromethyl)pyridin-3-yl)ethynyl)isothiazolo[4,3-b]pyridine], the IC50 stood at 680 nM.
Take `COc1ccc(C#Cc2snc3cc(-c4ccc(OC)c(OC)c4)cnc23)cn1` [Compound 7h, 6-(3,4-Dimethoxyphenyl)-3-((6-methoxypyridin-3-yl)ethynyl)isothiazolo[4,3-b]pyridine]: the IC50 amounted to 590 nM.
Same read-out and setting: the result for `COc1ccc(-c2cnc3c(C#Cc4ccc(F)nc4)snc3c2)cc1OC` [Compound 7j, 6-(3,4-Dimethoxyphenyl)-3-((6-fluoropyridin-3-yl)ethynyl)isothiazolo[4,3-b]pyridine] reads 120 nM; that for `CCOc1ncccc1C#Cc1snc2cc(-c3ccc(OC)c(OC)c3)cnc12` [Compound 7s, 6-(3,4-Dimethoxyphenyl)-3-((2-ethoxypyridin-3-yl)ethynyl)isothiazolo[4,3-b]pyridine], 110 nM.
As to `COc1ccc(-c2cnc3c(/C=C(\SCCO)c4cccnc4)snc3c2)cc1OC` [Compound 23d, (Z)-2-((2-(6-(3,4-Dimethoxyphenyl)isothiazolo[4,3-b]pyridin-3-yl)-1-(pyridin-3-yl)vinyl)thio)ethan-1-ol], the IC50 amounted to 1540 nM.
The same measure, in the same setting: the result for `COc1ccc(-c2cnc3c(C#Cc4ccc(C)nc4)snc3c2)cc1OC` [Compound 7g, 6-(3,4-Dimethoxyphenyl)-3-((6-methylpyridin-3-yl)ethynyl)isothiazolo[4,3-b]pyridine] reads 360 nM; that for `CO/C(=C\c1snc2cc(-c3ccc(OC)c(OC)c3)cnc12)c1cccnc1` [Compound 23a, (Z)-6-(3,4-Dimethoxyphenyl)-3-(2-methoxy-2-(pyridin-3-yl)vinyl)isothiazolo[4,3-b]pyridine], 525 nM; that for `COc1ccc(C#Cc2snc3cc(-c4ccc(OC)c(OC)c4)cnc23)c(OC)n1` [Compound 7u, 6-(3,4-Dimethoxyphenyl)-3-((2,6-dimethoxypyridin-3-yl)ethynyl)isothiazolo[4,3-b]pyridine], 5670 nM.
For the molecule `CC(C)Oc1ccc(-c2cnc3c(C#Cc4cccnc4)snc3c2)cc1` [Compound 3e, 6-(4-Isopropoxyphenyl)-3-(pyridin-3-ylethynyl)isothiazolo[4,3-b]pyridine], the IC50 came out at 20 nM.
On to `Cc1ccccc1-c1cnc2c(C#Cc3cccnc3)snc2c1` [Compound 3c, 3-(Pyridin-3-ylethynyl)-6-(2-tolyl)isothiazolo[4,3-b]pyridine], for which the IC50 amounted to 8.2 nM.
In the case of `COc1ccc(-c2cnc3c(C#Cc4ccc(F)cc4)snc3c2)cc1OC` [Compound 7c, 6-(3,4-Dimethoxyphenyl)-3-((4-fluorophenyl)ethynyl)isothiazolo[4,3-b]pyridine], the IC50 stood at 250 nM.
As for `COc1ccc(-c2cnc3c(C#CCNC(=O)Nc4ccccc4)snc3c2)cc1OC` [Compound 11c, 1-(3-(6-(3,4-Dimethoxyphenyl)isothiazolo[4,3-b]pyridin-3-yl)prop-2-yn-1-yl)-3-phenylurea], the IC50 is > 10000 nM.
For the molecule `COc1ccc(-c2cnc3c(-c4cccnc4)snc3c2)cc1OC` [Compound 17, 6-(3,4-Dimethoxyphenyl)-3-(pyridin-3-yl)isothiazolo[4,3-b]pyridine], the IC50 was 602 nM.
Same read-out and setting: the result for `COc1ccc(-c2cnc3c(C#CCNS(=O)(=O)c4ccccc4)snc3c2)cc1OC` [Compound 11b, N-(3-(6-(3,4-Dimethoxyphenyl)isothiazolo[4,3-b]pyridin-3-yl)prop-2-yn-1-yl)benzenesulfonamide] reads 1840 nM; that for `COc1ccc(-c2cnc3c(/C=C(\OCCN(C)C)c4cccnc4)snc3c2)cc1OC` [Compound 23b], 309 nM; that for `COc1ccc(-c2cnc3c(C#Cc4cccc(Cl)c4)snc3c2)cc1OC` [Compound 7d, 6-(3,4-Dimethoxyphenyl)-3-((3-chlorophenyl)ethynyl)isothiazolo[4,3-b]pyridine], 39 nM.
The same measure, in the same setting: the result for `C(#Cc1snc2cccnc12)c1cccnc1` [Compound 2a, 3-(Pyridin-3-ylethynyl)isothiazolo[4,3-b]pyridine] reads 1150 nM.
Consider `COc1ccc(-c2cnc3c(NC(=O)c4cccnc4)snc3c2)cc1OC` [Compound 20, N-(6-(3,4-Dimethoxyphenyl)isothiazolo[4,3-b]pyridin-3-yl)nicotinamide], for which the IC50 amounted to 4290 nM.
Consider `COc1ccc(-c2cnc3c(NCc4cccnc4)snc3c2)cc1OC` [Compound 15, 6-(3,4-Dimethoxyphenyl)-N-(pyridin-3-ylmethyl)isothiazolo[4,3-b]pyridin-3-amine], for which the IC50 is > 10000 nM.

Staying with this assay, now noted: ratio of IC50 values.
In the case of `CCCC#Cc1snc2cc(-c3ccc(OC)c(OC)c3)cnc12` [Compound 7a, 6-(3,4-Dimethoxyphenyl)-3-(pent-1-yn-1-yl)isothiazolo[4,3-b]pyridine], the “fold less potent on PIKfyve relative to RMC-113” value is recorded as 100 fold.

Staying with this assay, now noted: values given in text in nM.
Take `Cc1ccccc1-c1cnc2c(C#Cc3cccnc3)snc2c1` [Compound 3c, 3-(Pyridin-3-ylethynyl)-6-(2-tolyl)isothiazolo[4,3-b]pyridine]: the IC50 is 8 nM.
